Experimental data taken from patent publication US9233961B2, “Compounds and compositions for the treatment of parasitic diseases” (Novartis AG, priority 2013, dated 2016).
Where two headings read alike, the source gives them in different places.

Legend:
[1] = tested on: Leishmania donovani axenic amastigote parasites; assay: Leishmania donovani axenic amastigote proliferation assay; type: cell-based
Description: Leishmania Donovani Axenic Amastigote Proliferation Assay
Leishmania donovani axenic amastigote parasites are grown at 37° C., 5% CO2 in media made of RPMI 1640, 4 mM L-glutamine, 20% heat inactivated FBS, 100 units/ml of penicillin and 100 μg/ml of streptomycin, 23 μM Folic Acid, 100 μM Adenosine, 22 mM D-glucose, 25 mM MES. The pH of media is adjusted to 5.5 at 37° C. using HCl. 20 μL of media is first dispensed into 384 well plates and 100 nL of the compounds of invention in DMSO are added to the plate wells. At the same time control compounds and DMSO are added to plates to serve as the positive and negative controls, respectively. 40 μL of parasite culture (9600 parasites) are then added to the plate wells. The plates are then placed into incubators. After 2 day incubation, 20 μL of Cell TiterGlo (Promega) is added to the plate wells. The luminescence signal of each well is measured using the Envision reader (Perkin Elmer). The percentage inhibition of 50%, EC50, is calculated for each of the compounds.

[2] = tested on: L. donovani HU3 strain in mouse peritoneal macrophages; assay: Assay for proliferation of Leishmania parasites in mouse peritoneal macrophages; type: cell-based, Leishmania donovani; conditions: Leishmania donovani, Peritoneal macrophage
Source text: Assay for Proliferation of Leishmania Parasites
The activity of a compound according to the present invention for inhibition of parasitemai can be assessed by the parasite proliferation assay. The assay measures the increase in the parasite number in the assayed plate well using a DNA intercalating dye, SYBR Green I® dye (INVITROGEN) to stain Leishmania cell nuclei. It is understood that the assays illustrate the invention without in any way limiting the scope of the invention.
L. donovani HU3 strain is propagated by infecting BALB/c mice through tail vein injection with 10^7 Leishmania parasites. Infected mice are allowed to develop infection during 9-11 weeks post-infection. During this time, the parasites accumulate in the infected mouse spleens to large numbers, and the infected mice serve as the source of parasites for the in vitro measurement of compound efficacies. To assay a compound for anti-leishmanial activity, peritoneal macrophages isolated from non-infected BALB/c mice are seeded into 384-well plates at density 2×10^4 macrophages per well in […] of medium (RPMI 1640, 10% […], 10 mM HEPES, 1 mM sodium pyruvate, 1% Pen/Strep). Subsequently, the seeded plates are placed into an incubator set to maintain 37° C. temperature and atmosphere with 5% CO2. The next day, Leishmania parasites are isolated from the spleens of mice infected for 9-11 weeks and 4×10^5 isolated parasites in […] of the above media are added to each plate well. Plates are then returned into incubators and infection is allowed to proceed for 24 hours. After the infection of macrophages is completed, […] of compounds of the invention in the above medium, which also contains 5% DMSO, are added to plate wells containing infected macrophages. At the same time control compounds (miltefosine and amphotericin B) and DMSO are added to plates to serve as the positive and negative controls, respectively. After the compound addition, the plates are returned into incubator and cells infected with parasites are cultured for 5 days. At the end of cultivation, […] of 8% paraformaldehyde is added to plate wells and incubated for 15 min at room temperature. Following the incubation, the paraformaldehyde from plate wells is aspirated, and […] of PBS containing 0.2% Triton X-100 is added to wells. After 15 min incubation, the solution is aspirated from wells again, and replaced with SybrGreen Dye solution in PBS (1:125,000 dilution). Infected cells are imaged with Evotec Opera high-content microscope, and the number of parasites in well is determined by counting parasite nuclei visualized by staining with SybrGreen dye. The percentage inhibition of 50%, EC50, is calculated for each compound.
The inhibitory efficacy of the compounds of the invention in delaying the proliferation of L. donovani in mouse peritoneal macrophages is provided in Table I, infra.

[3] = axenic amastigotes in vitro, read-out: L. donovani amastigotes EC50
[4] = read-out: L. donavani Macrophage EC50
[5] = read-out: L. donavani Macrophage EC50 (μM)

Row | SMILES | EC50 [1, 3] [µM] | EC50 [2, 4] [µM] | EC50 ([1]; read-out: L. donovani amastigotes EC50) [µM] | EC50 ([1]; 48 h, L. donovani axenic amastigotes, 2 day incubation, Cell TiterGlo luminescence, read-out: EC50) [µM] | EC50 [2, 5] [µM]
1 | CCc1noc(C(=O)Nc2ccc(F)c(-c3nc4ncc(Br)cc4o3)c2)n1 [Compound 405] | > 25 | > 50 |  |  | 
2 | CN(C)C(=O)Nc1ccc(F)c(-c2nc3ncc(Cl)cc3[nH]2)c1 [Compound 354] | > 25 | > 50 |  |  | 
3 | O=C(Nc1ccc(Cl)c(-c2nc3ncncc3[nH]2)c1)c1ccco1 [Compound 4] | 4.2 | 25.5 |  |  | 
4 | CN(C)c1ccc(-c2cnc3nc(-c4cc(NC(=O)c5ccco5)ccc4Cl)[nH]c3c2)cc1 [Compound 67] | 2.12 | 2.5 |  |  | 
5 | Cc1ccc(C(=O)Nc2ccc(F)c(-c3nc4ncc(-c5ccccc5)cc4[nH]3)c2)o1 [Example 380, N-(4-fluoro-3-{6-phenyl-1H-imidazo[4,5-b]pyridin-2-yl}phenyl)-5-methylfuran-2-carboxamide] | 5.7 | 3.3 |  |  | 
6 | CC(C)c1cnc2nc(-c3cc(NC(=O)c4ccco4)ccc3Cl)[nH]c2c1 [Compound 77] | 6.7 | 35 |  |  | 
7 | CCc1nnc(C(=O)Nc2ccc(F)c(-c3nc4ncc(Br)cc4o3)c2)o1 [Example 404, N-(3-{6-bromo-[1,3]oxazolo[4,5-b]pyridin-2-yl}-4-fluorophenyl)-5-ethyl-1,3,4-oxadiazole-2-carboxamide] | > 25 | > 50 |  |  | 
8 | CC(C)OC(=O)Nc1ccc(-c2cnc3nc(-c4cc(NC(=O)Nc5ccc(C(F)(F)F)cc5)ccc4F)oc3c2)cc1 [Compound 396] | 16.1 | > 50 |  |  | 
9 | O=C(Nc1ccc(Cl)c(-c2nc3ncc(Br)cc3[nH]2)c1)c1cocn1 [Compound 369] | > 25 | > 50 |  |  | 
10 | Cc1cnc2nc(-c3cc(NC(=O)CO)ccc3Cl)[nH]c2c1 [Compound 183] | > 25 | > 50 |  |  | 
11 | COC(=O)Nc1ccc(-c2cnc3nc(-c4cc(NC(=O)N5CCC(F)(F)C5)ccc4Cl)[nH]c3c2)cc1 [Example 343, Methyl N-[4-(2-{2-chloro-5-[(3,3-difluoropyrrolidin-1-yl)carbonylamino]phenyl}-1H-imidazo [4,5-b]pyridin-6-yl)phenyl]carbamate] |  | 0.51 | 0.245 |  | 
12 | CNc1ccc(-c2cnc3nc(-c4cc(NC(=O)N5CCCC5)ccc4Cl)[nH]c3c2)cc1 [Compound 292, N-(4-chloro-3-{6-[4-(methylamino)phenyl]-1H-imidazo[4,5-b]pyridin-2-yl}phenyl)pyrrolidine-1-carboxamide] | 0.08 | 0.17 |  | ~0.08 | 
13 | O=C(Nc1ccc(Cl)c(-c2nc3ncc(Cl)cc3[nH]2)c1)c1ccco1 [Compound 2] | 1.39 | 4 |  |  | 
14 | COCCOc1ccc(-c2cnc3nc(-c4cc(NC(=O)c5ccco5)ccc4Cl)[nH]c3c2)cc1 [Compound 60] | 0.8 | 3.5 |  |  | 
15 | Cc1cnc2nc(-c3cc(NC(=O)C4CCO4)ccc3Cl)[nH]c2c1 (stereo not drawn) [Compound 103] | > 25 | > 50 |  |  | 
16 | Cc1cnc2nc(-c3cc(NC(=O)c4ccnnc4)ccc3Cl)[nH]c2c1 [Compound 92] | > 20 | > 50 |  |  | 
17 | Cc1cnc2nc(-c3cc(NC(=O)c4occc4C)ccc3Cl)[nH]c2c1 [Compound 130] | 2.01 | 15.7 |  |  | 
18 | CC(=O)Nc1ccc(F)c(-c2nc3ncc(C)cc3[nH]2)c1 [Compound 272] | > 25 | > 50 |  |  | 
19 | CCc1cnc2nc(-c3cc(NC(=O)c4ccco4)ccc3Cl)oc2c1 [Example 419, N-(4-chloro-3-{6-ethyl-[1,3]oxazolo[4,5-b]pyridin-2-yl}phenyl)-furan-2-carboxamide] | 0.36 |  |  |  | 2.46
20 | NC(=O)Nc1ccc(-c2cnc3nc(-c4cc(NC(=O)c5ccco5)ccc4Cl)[nH]c3c2)cc1 [Compound 32] | > 25 | 15.3 |  |  | 

Row | SMILES | EC50 [1, 3] [µM] | EC50 [2, 4] [µM] | EC50 ([1]; read-out: L. donovani amastigotes EC50) [µM] | EC50 ([1]; 48 h, L. donovani axenic amastigotes, 2 day incubation, Cell TiterGlo luminescence, read-out: EC50) [µM] | EC50 [2, 5] [µM]
21 | C[Si](C)(C)CCOCn1cnc(-c2cnc3nc(-c4cc(NC(=O)N5CCCC5)ccc4Cl)[nH]c3c2)c1 [Compound 306] | 0.207 | 0.181 |  |  | 
22 | O=C(Nc1ccc(F)c(-c2nc3ncc(-c4ccccc4)cc3o2)c1)N1CCCC1 [Example 415, N-(4-fluoro-3-{6-phenyl-[1,3]oxazolo[4,5-b]pyridin-2-yl}phenyl)pyrrolidine-1-carboxamide] | 0.4 |  |  |  | 0.1
23 | O=C(Nc1ccc(Cl)c(-c2nc3ncc(-c4ccc(OCC5CCOCC5)cc4)cc3[nH]2)c1)c1ccco1 [Compound 26] | 0.68 | 2.17 |  |  | 
24 | O=C(Nc1ccc(Cl)c(-c2nc3ncc(C(F)(F)F)cc3[nH]2)c1)c1cnccn1 [Compound 285] | 0.73 | 5 |  |  | 
25 | O=C(Nc1ccc(Cl)c(-c2nc3ncc(-c4cccc(OCCN5CCOCC5)c4)cc3[nH]2)c1)N1CCCC1 [Compound 301] | 0.91 | 1.05 |  |  | 
26 | CN(C)Cc1ccc(C(=O)Nc2ccc(Cl)c(-c3nc4ncc(Br)cc4[nH]3)c2)o1 [Example 372, N-(3-{6-bromo-1H-imidazo[4,5-b]pyridin-2-yl}-4-chlorophenyl)-5-[(dimethylamino)methyl]furan-2-carboxamide] | > 25 | 2.52 |  |  | 
27 | COC(=O)Nc1ccc(-c2cnc3nc(-c4cc(NC(=O)Nc5ccc(C(F)(F)F)cc5)ccc4F)oc3c2)cc1 [Compound 402] | > 24 | 10 |  |  | 
28 | Cc1cnc2nc(-c3cc(NC(=O)c4ccnc([S+](C)[O-])n4)ccc3Cl)[nH]c2c1 (stereo not drawn) [Compound 154] | > 24.1 | > 50 |  |  | 
29 | Nc1ncc(-c2cnc3nc(-c4cc(NC(=O)c5ccco5)ccc4Cl)[nH]c3c2)cn1 [Compound 17] | 0.48 | 1.57 |  |  | 
30 | COC(=O)Nc1ccc(-c2cnc3nc(-c4cc(NC(=O)c5ccco5)ccc4F)oc3c2)cc1 [Compound 414] | 0.2 |  |  |  | 1.17
31 | O=C(Nc1ccc(Cl)c(-c2nc3ncc(-c4ccc(N5CCCC5)cc4)cc3[nH]2)c1)c1ccco1 [Compound 68] | 2.85 | 4.9 |  |  | 
32 | O=C(Nc1ccc(Cl)c(-c2nc3ncc(Br)cc3[nH]2)c1)c1ccc(F)o1 [Compound 373] | 0.55 | 2.15 |  |  | 
33 | CCN(CC)C(=O)Nc1ccc(F)c(-c2nc3ncc(Cl)cc3[nH]2)c1 [Compound 355] | > 25 | > 50 |  |  | 
34 | O=C(Nc1ccc(Cl)c(-c2nc3ncc(C(F)(F)F)cc3[nH]2)c1)c1ccco1 [Example 276, N-{4-Chloro-3-[6-(trifluoromethyl)-1H-imidazo[4,5-b]pyridin-2-yl]phenyl}furan-2-carboxamide] | 1.56 | 6 |  |  | 
35 | Cc1cncc(C(=O)Nc2ccc(Cl)c(-c3nc4ncc(C)cc4[nH]3)c2)c1 [Compound 102] | 16.1 | 11.7 |  |  | 
36 | Cc1cnc2nc(-c3cc(NC(=O)[C@H]4C[C@@H](O)CN4)ccc3F)[nH]c2c1 [Compound 271] | > 25 | > 50 |  |  | 
37 | CC(C)c1nnc(C(=O)Nc2ccc(F)c(-c3nc4ncc(Br)cc4o3)c2)o1 [Compound 406] | > 25 | > 50 |  |  | 
38 | Cc1cc2[nH]c(-c3cc(NC(=O)c4ccco4)ccc3Cl)nc2nc1C [Compound 5] | > 25 | 49.4 |  |  | 
39 | CC(C)OC(=O)Nc1ccccc1-c1cnc2nc(-c3cc(NC(=O)c4ccco4)ccc3Cl)[nH]c2c1 [Compound 37] | 0.46 | 0.55 |  |  | 
40 | CC(C)(CN)c1ccc(-c2cnc3nc(-c4cc(NC(=O)N5CCCC5)ccc4Cl)[nH]c3c2)cc1 [Compound 304] | 9.6 | 4.7 |  |  | 
